According to US10441663B2, “Methods for treating cancer” (Bicycle Therapeutics Limited, priority 2016, dated 2019):
*1 amine or outer side, *2 acyl side, *3 side chain or, on linkers, in order; H or OH if unused. Where a SMILES comes first, the peptide text is derived from it. Bridges are numbered along the chain shown (N, C = ends). [ ]: non-standard residue; d: D form. The star is where a group is joined. X1 = COc1cc2cc(c1Cl)N(C)C(=O)C[C@H](OC(=O)[C@H](C)N(C)C(=O)CCSSC(C)CCC(=O)*)[C@]1(C)O[C@H]1[C@H](C)[C@@H]1C[C@@](O)(NC(=O)O1)[C@H](OC)/C=C/C=C(\C)C2; 1Nal = N[C@@H](Cc1cccc2ccccc12)C(=O)O; TBMB = c1c(C[*:1])cc(C[*:3])cc1C[*:2]; Tle = CC(C)(C)[C@H](N)C(=O)O; βAla = NCCC(=O)O; Sar = CNCC(=O)O

Legend:
SNU-16 xenograft = assay: In vivo efficacy of BT1718 in SNU-16 xenograft; design: species or system Mus Musculus; key to Best response at 10 mg/kg: CR complete response; PR partial response
Method: The objective of this study was to evaluate the in vivo anti-tumor efficacy of BT1718in treatment of HT1080, NCI-H292, NCI-H1975, MDA-MB-231, HCC1806, RPMI2650, HCT-15, HT-29 and SNU-16 xenograft in BALB/c nude mice.
The HT1080, NCI-H292, NCI-H1975, MDA-MB-231, HCC1806, RPMI2650, HCT-15, HT-29 and SNU-16 tumor cells were maintained in vitro as a monolayer culture in medium supplemented with 10% heat inactivated fetal bovine serum at 37° C. in an […]. The tumor cells will be routinely subcultured twice weekly by trypsin-EDTA treatment. The cells growing in an exponential growth phase will be harvested and counted for tumor inoculation.
Mouse was inoculated subcutaneously at the right flank with tumor cells for tumor development. The animals were randomized and treatment was started when the average tumor reaches certain volume for the efficacy study, the inoculating cell amounts and starting tumor size were shown as below in Table 9. The test article administration and the animal numbers in each group were shown in the experimental design in Table 10.
All the procedures related to animal handling, care and the treatment in the study were performed according to the guidelines of the Association for Assessment and Accreditation of Laboratory Animal Care (AAALAC). At the time of routine monitoring, the animals were daily checked for any effects of tumor growth and treatments on normal behavior such as mobility, food and water consumption (by looking only), body weight gain/loss (body weights were measured every day), eye/hair matting and any other abnormal effect as stated in the protocol. Death and observed clinical signs were recorded on the basis of the numbers of animals within each subset.
The major endpoint was to see if the tumor growth could be delayed or mice could be cured. Tumor size was measured three times weekly in two dimensions using a caliper, and the volume was expressed in mm^3 using the formula: V=0.5 a×b^2 where a and b are the long and short diameters of the tumor, respectively. The tumor size was then used for calculations of T/C value. The T/C value (in percent) is an indication of antitumor effectiveness; T and C are the mean volumes of the treated and control groups, respectively, on a given day.
TGI was calculated for each group using the formula: TGI (%)=[1−(Ti−T0)/(Vi−V0)]×100; Ti is the average tumor volume of a treatment group on a given day, T0 is the average tumor volume of the treatment group on the day of treatment start, Vi is the average tumor volume of the vehicle control group on the same day with Ti, and V0 is the average tumor volume of the vehicle group on the day of treatment start.
Summary statistics, including mean and the standard error of the mean (SEM), are provided for the tumor volume of each group at each time point.
Statistical analysis of difference in tumor volume among the groups was conducted on the data obtained at the best therapeutic time point after the final dose.
A one-way ANOVA was performed to compare tumor volume among groups, and when a significant F-statistics (a ratio of treatment variance to the error variance) was obtained, comparisons between groups were carried out with Games-Howell test. All data were analyzed using Prism. P<0.05 was considered to be statistically significant.

HT1080 cell line = assay: In vitro cytotoxicity, ATP endpoint assay after 72 hours incubation; format: cell-based; details: HT-1080 cells
Method: To evaluate the in vitro cytotoxicity of BT1718 and BT1721 in an HT1080 cell line using an ATP endpoint assay after 72 hours incubation.
Cells were seeded in 96 well plates (75 μl/well, HT1080=7500−15000 cell/well) and incubated overnight at 37° C.+5% CO2.
The day after cell seeding, serial dilutions (1:5) of BT1718 and BT1721 were prepared in DMSO and diluted 1:71 in cell culture media to give 4× final concentrations. Twenty five μl/well was added to the cells (2 μM or 5 μM top final concentration of BT1718 and 2 μM or 5 μM top final concentration of BT1721, <0.6% final DMSO).
Cells were 30-50% confluent upon dosing. Control wells containing 5 μM final concentration of staurosporine (positive control), lysis buffer (1% NP40, 20 mM Tris pH8, 137 mM NaCl, 10% glycerol, 2 mM EDTA, 1 mM Na Orthovanadate, 10 μg/ml leupeptin, 10 μg/ml aprotinin) positive control or media (negative control), were also included. Plates were sealed with gas permeable seals and incubated at 37° C.+5% CO2 for 72 hours. No wash steps were performed.
After a total of 72 hours after dosing, ATPLite reagent (Perkin Elmer) was equilibrated to room temperate and reconstituted in the supplied buffer as per the manufacturer's instructions. One hundred μl 1× detection reagent was added per well. Plates were sealed, protected from light and shaken gently for 20 minutes to ensure complete cell lysis before luminescence was read using a BMG Pherastar FS plate reader. […] Data was analysed using GraphPad Prism. Non-linear regression fit was used to calculate a relative IC50 for each toxic agent: Y=Bottom+(Top−Bottom)/(1+10^((Log Ic50−X)*HillSlope)) where the IC50 is defined as 50% of the total cell kill achieved at the top concentration of toxin.

COc1cc2cc(c1Cl)N(C)C(=O)C[C@H](OC(=O)[C@H](C)N(C)C(=O)CCSSC(C)CCC(=O)NCCC(=O)N(C)CC(=O)N(C)CC(=O)N(C)CC(=O)N(C)CC(=O)N(C)CC(=O)N(C)CC(=O)N(C)CC(=O)N(C)CC(=O)N(C)CC(=O)N(C)CC(=O)N[C@@H](C)C(=O)N[C@H]1CSCc3cc4cc(c3)CSC[C@H](NC(=O)[C@@H](C)NC(=O)[C@H](Cc3cccc5ccccc35)NC(=O)[C@H](CCC(=O)O)NC(=O)[C@H](CC(N)=O)NC(=O)[C@@H](C)NC1=O)C(=O)N[C@@H](CCC(=O)O)C(=O)N[C@@H](CC(=O)O)C(=O)N[C@@H](Cc1ccccc1)C(=O)N[C@@H](Cc1ccc(O)cc1)C(=O)N[C@@H](CC(=O)O)C(=O)N[C@@H](C(C)(C)C)C(=O)N[C@H](C(N)=O)CSC4)[C@]1(C)O[C@H]1[C@H](C)[C@@H]1C[C@@](O)(NC(=O)O1)[C@H](OC)/C=C/C=C(\C)C2 (some centres unmarked) [BT1718] ({X1-βAla}-[Sar][Sar][Sar][Sar][Sar][Sar][Sar][Sar][Sar][Sar]AC[dA]NE[1Nal][dA]CEDFYD[Tle]C-NH2; linker 12-18-25 via TBMB (inferred))
Body Weight (SNU-16 xenograft; 1 mpk biw, day 0): 22.9 ± 0.5 g | Tumor Volume (SNU-16 xenograft; 1 mpk biw, day 0): 160 ± 24 mm^3 | Body Weight (SNU-16 xenograft; 1 mpk biw, day 2): 22.8 ± 0.5 g | Tumor Volume (SNU-16 xenograft; 1 mpk biw, day 2): 160 ± 15 mm^3 | Body Weight (SNU-16 xenograft; 1 mpk biw, day 4): 23.0 ± 0.5 g | Tumor Volume (SNU-16 xenograft; 1 mpk biw, day 4): 140 ± 12 mm^3 | Body Weight (SNU-16 xenograft; 1 mpk biw, day 7): 23.0 ± 0.4 g | Tumor Volume (SNU-16 xenograft; 1 mpk biw, day 7): 137 ± 13 mm^3 | Body Weight (SNU-16 xenograft; 1 mpk biw, day 9): 22.7 ± 0.5 g | Tumor Volume (SNU-16 xenograft; 1 mpk biw, day 9): 139 ± 9 mm^3 | Body Weight (SNU-16 xenograft; 1 mpk biw, day 11): 23.0 ± 0.5 g | Tumor Volume (SNU-16 xenograft; 1 mpk biw, day 11): 142 ± 11 mm^3 | Body Weight (SNU-16 xenograft; 1 mpk biw, day 14): 23.3 ± 0.5 g | Tumor Volume (SNU-16 xenograft; 1 mpk biw, day 14): 176 ± 9 mm^3 | Body Weight (SNU-16 xenograft; 3 mpk biw, day 0): 22.7 ± 0.3 g | Tumor Volume (SNU-16 xenograft; 3 mpk biw, day 0): 161 ± 29 mm^3 | Body Weight (SNU-16 xenograft; 3 mpk biw, day 2): 22.1 ± 0.5 g | Tumor Volume (SNU-16 xenograft; 3 mpk biw, day 2): 115 ± 13 mm^3 | Body Weight (SNU-16 xenograft; 3 mpk biw, day 4): 21.8 ± 0.2 g | Tumor Volume (SNU-16 xenograft; 3 mpk biw, day 4): 36 ± 4 mm^3 | Body Weight (SNU-16 xenograft; 3 mpk biw, day 7): 21.5 ± 0.3 g | Tumor Volume (SNU-16 xenograft; 3 mpk biw, day 7): 25 ± 4 mm^3 | Body Weight (SNU-16 xenograft; 3 mpk biw, day 9): 20.0 ± 0.1 g | Tumor Volume (SNU-16 xenograft; 3 mpk biw, day 9): 18 ± 1 mm^3 | Body Weight (SNU-16 xenograft; 3 mpk biw, day 11): 20.2 ± 0.6 g | Tumor Volume (SNU-16 xenograft; 3 mpk biw, day 11): 5 ± 3 mm^3 | Body Weight (SNU-16 xenograft; 3 mpk biw, day 14): 20.6 ± 0.6 g | Tumor Volume (SNU-16 xenograft; 3 mpk biw, day 14): 0 ± 0 mm^3 | Best response at 10 mg/kg (SNU-16 xenograft; SNU-16, 10 mg/kg): CR | TGI (SNU-16 xenograft; SNU-16, 1 mpk, biw, day 14): 51.4% | Tumor Volume (SNU-16 xenograft; SNU-16, 1 mpk, biw, day 14): 304 ± 43 mm^3 | TGI (SNU-16 xenograft; SNU-16, 3 mpk, biw, day 14): 94.5% | Tumor Volume (SNU-16 xenograft; SNU-16, 3 mpk, biw, day 14): 176 ± 9 mm^3 | TGI (SNU-16 xenograft; SNU-16, 10 mpk, biw, day 14): 155% | Tumor Volume (SNU-16 xenograft; SNU-16, 10 mpk, biw, day 14): 0 ± 0 mm^3 | Minimally Effective Dose IV BIW (SNU-16 xenograft; SNU-16, dose leading to tumor-stasis): 3 mg/kg | dosing suspension until re-growth to 150 mm3 (SNU-16 xenograft; after 10 mg/kg biw): 7 weeks | tumor response (SNU-16 xenograft; after 2 weeks 10 mg/kg biw): completely regressed | dosing time until tumor regression on resumed treatment (SNU-16 xenograft; mouse, in vivo): 1-2 weeks | IC50 (HT1080 cell line; ATP endpoint): 1 nM | relative cytotoxic activity versus BT1721 (HT1080 cell line): approximately ten-fold more active
